Experimental data as given in patent publication US20140357706A1, “Stearate Compounds” (THE UAB RESEARCH FOUNDATION, priority 2011, published 2014).

Columns and labels:
[1] = system: differentiated 3T3L1 adipocytes; assay: Necrosis and apoptosis of differentiated 3T3L1 adipocytes (trypan blue, LDH, flow cytometry); assay type: cell-based, mouse; conditions: 50 μM
Method: 3T3L1 mouse fibroblast cells (ATCC, CL-173™) were maintained according to the manufacture's protocol, in Dulbecco's modified eagle's medium (DMEM) containing 10% Fetal Bovine Serum and antibiotics (M1 medium). Adipocyte differentiation was performed according to standard procedures (42). Briefly, the 3T3L1 fibroblasts were seeded at 30% confluence and allowed to grow to near 100% confluence. On the day after reaching maximum confluence, conversion was induced by replacing the M1 medium with M1 medium containing insulin (5 μg/ml), dexamethasone (0.25 μM), and 3-isobutyl-1-methyl-xanthine (0.5 mM). After 2 days, the cells were changed to M1 medium with insulin (5 μg/ml) for an additional 2 days. Thereafter, the cells were maintained in M1 medium without additives for 2 days.
50 μM of stearate, oleate or linoleate was used to treat 3T3L1 cells as this concentration is centered within the normal range for non-esterified stearate in the plasma of humans. Stearate, oleate, or linoleate was loaded onto fatty acid free BSA according to the method reported by Spector and Hoak (Spector and Hoak, 1969). Briefly, stearate (0.5 g) was dissolved in chloroform (100 mL) and mixed well with 10 g diatomaceous earth in a 1 liter flask. The mixture was stirred and dried under nitrogen until powder. Fatty acid free BSA (1 g) was dissolved in 100 mL with DMEM without phenol red and mixed with 3 g of the stearate/diatomaceous earth mixture and stirred for 30 minutes. The stearate/BSA solution was filtered through a 0.45 μm filter, and adjusted to pH 7.4. The concentration of stearate in the solution was detected by use of a NEFA C kit. Oleic and linoleate were loaded in the same way. […] Before the treatment with fatty acid, 3T3L1 preadipocytes were grown to 100%, and were starved in 2% FBS medium for 24 hours.
After treatment, 3T3L1 cells were harvested, washed with cold PBS, and then resuspended in 100 μl annexin-binding buffer (50 mM HEPES, 700 mM NaCl, 12.5 mM CaCl2, pH 7.4). Cell density was determined, and the cells were diluted to 10^6 cells. Then 5μL of Alex Fluo 488 annexin V and 1 μL propidium iodide (PI) were added. Cells were gently oscillated and incubated for 15 min at room temperature. After adding 400 μL of binding buffer to each tube, cells were kept on ice and analyzed by flow cytometry within 1 hour. Cells that stained positive for Alex Fluo 488 annexin V and negative for PI were considered to be apoptotic. Cells that stained positive for both Alex Fluo 488 annexin V and PI were considered either in the end stage of apoptosis, or necrosis. Cells that stained negative for both Alex Fluo 488 annexin V and PI were considered alive and not undergoing measurable apoptosis. A BD LSR II flow cytometer from Becton Dickinson was used in all flow experiments and the data were analyzed with BD FACSDiva™ software V.6.1.3.
Lactate dehydrogenase (LDH) release was measured using a cytotoxicity detection kit, according to the manufacture's protocol. After 3T3L1 cells were treated, 1 ml of cell culture medium was removed and centrifuged. The supernatant was retained for assaying. For determinations, 100 μl of LDH assay reagent was added to 100 μl of supernatant and incubated for 30 min at room temperature in the dark. Absorbance was measured at 490 nm. Background release from culture medium alone was subtracted before reporting. Maximum release was measured after adding 2% Triton X-100 to untreated cells.
After treatment, 3T3L1 cells were harvested and stained with 0.4% trypan blue solution. Cells in the four corners of the grid were counted under a conventional bright field binocular microscope.

[2] = system: p21^CIP1/WAF1 and p27^KIP1 mRNA; assay: Quantitative real-time RT-PCR for p21CIP1/WAF1 and p27KIP1 in Hs578T cells; assay type: cell-based, human; conditions: normalized to 18S rRNA; vs control, P<0.05
Method: Total RNA was extracted and purified with TRIZOL Reagent (GIBCO Invitrogen, Carlsbad, Calif.). The first-strand complementary DNA (cDNA) synthesis was achieved using a commercially available kit (New England BioLabs, Beverly, Mass.) according to the protocol from the manufacturer. Briefly, 1 μg of total RNA was reverse-transcribed using M-MuLV reverse transcriptase (25 U) and dT23VN primer (5 μM) in a final volume of 25 μl.
Quantitative real-time reverse-transcription polymerase chain reaction (RT-PCR) cDNA samples were diluted to appropriate concentrations and used for a real-time RT-PCR assay in a volume of 25 μl, containing 2 μl DNA template, 12.5 μl SYBR® Green PCR Master Mix (Applied Biosystems, Foster City, Calif.) and 0.4 μM each specific primer. The gene expression of p21^CIP1/WAF1 and p27^KIP1 were determined by real-time quantitative RT-PCR and the house-keeping gene 18S ribosomal RNA (rRNA) was used as an internal control to normalize the variable RNA loading in each sample. […] The fluorescence intensity corresponding to the CT was used to quantitate the target cDNA in the mixture of samples with […] dilutions, employing the standard curve for each target gene. Sequence Detector Software (Applied Biosystems) was used to extract the data of the quantitative real-time RT-PCR. […]

CCCCCCCCCCCCCCCCCC(=O)O [stearate, Stearic acid]
Cytotoxicity (lactate dehydrogenase in medium) [1]: no significant changes | Percentage of apoptotic cells (flow cytometry) [1]: no significant changes | Percentage of dead cells (flow cytometry) [1]: no significant changes | Percentage of dead cells (trypan blue) [1]: no significant changes | p21^CIP1/WAF1 mRNA expression [2]: increased
